# In PMC11350758, “Development of Xanthoangelol-Derived Compounds with Membrane-Disrupting Effects against Gram-Positive Bacteria” (Antibiotics, 2024):
# Like-named read-outs stand apart in the source and are kept apart here.
# Key:
# [1] = test system: S. aureus ATCC43300 biofilm formation; settings: 4 μg/mL
# Description: Bacterial biofilms created by the aggregation of bacteria is considered as one of the main reasons for the development of drug resistance. […] Subsequently, we further assessed the efficiency of 9h to eradicate the preformed biofilm. Matured S. aureus biofilm (grown for 24 h) was treated with compound 9h, and the rate of biofilm disruption was then assessed by the crystal violet staining assay.
# Biofilm inhibition assay: S. aureus ATCC43300 was cultured (37 °C, 200 rpm) in MHB broth for 5 h and diluted to 1 × 10^6 CFU/mL. […] The planktonic supernatant cells were discarded and washed with PBS three times. Then, methanol (150 µL) was added to each well for 30 min. After discarding methanol, 0.1% crystal violet solution (150 µL) was added, and biofilms were stained for 15 min. Next, crystal violet solution was removed and washed with PBS three times. Finally, ethanol (150 µL) was pipetted into the wells, and the OD values were measured at 575 nm. The biofilm inhibition (%) = (ODcompound − ODblank)/(ODpositive control − ODblank) × 100%.
# [2] = test system: Acinetobacter baumannii ATCC19606; assay: MIC, broth microdilution; format: cell-based; settings: Acinetobacter baumannii, ATCC19606, read-out: MIC A. b. 19606
# Description: (§1) All target derivatives were assessed for their in vitro antibacterial activities using a broth microdilution assay to test their minimum inhibitory concentrations (MICs) against six Gram-positive strains (S. aureus ATCC31007, S. aureus ATCC25923, S. aureus ATCC43300, E. faecalis ATCC29212, B. subtilis ATCC9372, and S. epidermidis ATCC12228) and four Gram-negative strains (A. baumannii ATCC19606, K. pneumonia ATCC10031, E. coli ATCC25922, and P. aeruginosa ATCC27853). These compounds were also evaluated for their hemolytic activities and membrane selectivity by determining their HC50 (the concentration required to lyse 50% of red blood cells) and SI (HC50/MICs) values, respectively, and vancomycin was used as the positive drug.
# (§2) MICs of the derivatives were determined by the micro broth dilution method according to the American Clinical and Laboratory Standards Institute (CLSI) standards. Briefly, 2-fold serial dilutions of target compounds were prepared in 96-well plates containing TSB broth. An equal volume of bacterial suspension (10^6 CFU/mL) was then pipetted into each well, and the mixture was incubated at 37 °C for 24 h. […] All biological experiments were repeated three times.
# [3] = test system: Bacillus subtilis ATCC9372, penicillin-susceptible strain; assay: MIC, broth microdilution; format: cell-based; settings: Bacillus subtilis, ATCC9372, read-out: MIC B. s. 9372
# Description: as §1, §2
# [4] = test system: Enterococcus faecalis ATCC29212, vancomycin-susceptible strain; assay: MIC, broth microdilution; format: cell-based; settings: Enterococcus faecalis, ATCC29212, read-out: MIC E. f. 29212
# Description: as §1, §2
# [5] = test system: Escherichia coli ATCC25922, penicillin-susceptible strain; assay: MIC, broth microdilution; format: cell-based; settings: Escherichia coli, ATCC25922, read-out: MIC E. c. 25922
# Description: as §1, §2
# [6] = test system: Klebsiella pneumonia ATCC10031; assay: MIC, broth microdilution; format: cell-based; settings: Klebsiella pneumoniae, ATCC10031, read-out: MIC K. p. 10031
# Description: as §1, §2
# [7] = test system: Pseudomonas aeruginosa ATCC27853; assay: MIC, broth microdilution; format: cell-based; settings: Pseudomonas aeruginosa, ATCC27853, read-out: MIC P. a. 27853
# Description: as §1, §2
# [8] = test system: Staphylococcus aureus ATCC25923, erythromycin-susceptible strain; assay: MIC, broth microdilution; format: cell-based; settings: Staphylococcus aureus, ATCC25923, read-out: MIC S. a. 25923
# Description: as §1, §2
# [9] = test system: Staphylococcus aureus ATCC31007, penicillin-resistant strain; assay: MIC, broth microdilution; format: cell-based; settings: Staphylococcus aureus, ATCC31007, read-out: MIC S. a. 31007
# Description: as §1, §2
# [10] = test system: Staphylococcus epidermidis ATCC12228, erythromycin-susceptible strain; assay: MIC, broth microdilution; format: cell-based; settings: Staphylococcus epidermidis, ATCC12228, read-out: MIC S. e. 12228
# Description: as §1, §2
# [11] = test system: Staphylococcus aureus ATCC43300, methicillin-resistant strain; assay: microbe, parasite or virus in culture; format: cell-based; settings: for MIC: ATCC 43300 / MRSA, read-out: MIC S. a 43300
# Description: as §1, §2
# [12] = test system: Enterococcus faecalis ATCC51299, vancomycin-resistant strain; assay: MIC, broth microdilution; format: cell-based; settings: Enterococcus faecalis, ATCC51299, read-out: MIC E. f. 51299
# Description: as §2
# [13] = test system: Enterococcus faecium ATCC51559, vancomycin-resistant strain; assay: MIC, broth microdilution; format: cell-based; settings: Enterococcus faecium, ATCC51559, read-out: MIC E. f. 51559
# Description: as §2
# S. aureus ATCC4330 = assay: microbe, parasite or virus in culture; format: cell-based; settings: control compounds of the ROS assay
# Description: Due to the presence of various biological enzymes in plasma, natural AMPs are susceptible to enzymatic degradation upon entering the bloods, leading to a loss of their antimicrobial activity. To evaluate the plasma stability of active compound 9h, we conducted a stability assay by determining their MBC (minimum bactericidal concentration) values in plasma and different blood components. […] The observed initial increase in the MBC value, followed by remaining unchanged, could potentially be attributed to the initial binding of compound 9h with plasma proteins, causing a reduction in its activity. Once this binding became saturated, the bactericidal activity of the compound remained stable, further indicating the good stability of compound 9h in plasma.
# MBCs of the compounds were tested. Furthermore, MBCs of compounds in 50% plasma, 50% serum, and 50% blood suspension were tested. The MBC value is defined as the concentration at which the colony count is less than 5 after 18 h of incubation at 37 °C. All biological experiments were repeated three times.
# S. aureus ATCC43300 [14] = assay: ROS assay (DCFH-DA); format: cell-based; settings: control compounds
# Description: It is known that the disruption of bacterial cell membranes often causes the production of ROS in bacterial cells. The fluorescent probe DCFH-DA was used to monitor the level of intracellular ROS produced by S. aureus ATCC43300. DCFH-DA is initially non-fluorescent; however, it undergoes hydrolysis to DCFH upon entry into the cell. Subsequently, DCFH is converted to the fluorescent compound DCF when ROS are produced in the cells. […] The fluorescence intensity of 9h was about 8-fold higher than the PBS-treated group when the concentration of 9h increased 16 μg/mL.
# Mid-log S. aureus ATCC43300 was collected and resuspended in PBS. Bacteria suspension (1.0 × 10^8 CFU/mL) was placed into a 96-well plate, and an equal volume of DCF-DA (10.0 μM) was mixed and incubated at 37 °C for 30 min. After incubation, the suspension was centrifuged (3500 rpm, 4 min), and the supernatant was removed and resuspended in PBS. […] The fluorescence intensity of each well was recorded by a microplate reader (Ex = 488 nm and Em = 530 nm). All biological experiments were repeated three times.
# S. aureus ATCC43300 [15] = assay: DNA leakage study; format: cell-based; settings: control compound
# Description: The destruction of bacterial cell membranes usually causes the leakage of macromolecules, including DNA and proteins. To investigate the effect of the compound 9h on the leakage of cytoplasmic contents, we performed DNA and protein leakage assays against S. aureus ATCC43300. The degree of damage to the bacterial cell membrane could be reflected by the concentrations of DNA and protein. The non-membrane-targeted antibiotic ciprofloxacin, membrane-targeted peptide melittin, and PBS were used as controls. […] A similar result were also observed in the leakage of protein with S. aureus (Figure 8C).
# Mid-log S. aureus ATCC43300 was collected and resuspended in PBS (1.0 × 10^8 CFU/mL). […] The concentration of the protein was determined according to the method of the BCA assay kit (Thermo Fisher Scientific, Waltham, MA, USA), and the concentration of DNA in the supernatant was tested by a micro-spectrophotometer. All biological experiments were repeated three times.
# S. aureus ATCC43300 [16] = assay: Resistance development assay (serial passage); format: cell-based; settings: at the 19th passage
# Description: The rapid increase in bacterial resistance to antibiotics is a major challenge in clinical treatment, and in order to assess the drug resistance development for compound 9h, we performed a drug resistance assay against S. aureus ATCC43300. Norfloxacin was selected as the positive control. The S. aureus cells were incubated with sub-MIC (1/2 MIC) concentration of compound 9h and were serially passaged for a duration of 20 days.
# Resistance was defined as a more than 4-fold increase in the tested compound in MIC when compared to the beginning value. Briefly, S. aureus ATCC43300 was cultured (37 °C, 200 rpm) in MHB broth for 5 h and diluted to 1 × 10^6 CFU/mL. Then, the bacteria were cultured with compound 9h at a sub-MIC concentration (1/2 MIC) for 18 h. The MICs were determined according to this method for consecutive 20 days. All biological experiments were repeated three times.
# [17] = Staphylococcus aureus ATCC43300 (MRSA)
compound,measurement,setting,value
"CC[C@H](C)[C@H](NC(=O)[C@H](CCCCN)NC(=O)[C@H](CCC(=O)O)NC(=O)[C@H](CCCCN)NC(=O)[C@H](CO)NC(=O)[C@H](CCCCN)NC(=O)[C@H](CCCNC(=N)N)NC(=O)[C@H](Cc1ccccc1)NC(=O)[C@H](Cc1ccccc1)NC(=O)[C@H](CC(=O)O)NC(=O)CNC(=O)[C@H](CC(C)C)NC(=O)[C@@H](N)CC(C)C)C(=O)NCC(=O)N[C@@H](CCCCN)C(=O)N[C@@H](CCC(=O)O)C(=O)N[C@@H](Cc1ccccc1)C(=O)N[C@@H](CCCCN)C(=O)N[C@@H](CCCNC(=N)N)C(=O)N[C@H](C(=O)N[C@H](C(=O)N[C@@H](CCC(N)=O)C(=O)N[C@@H](CCCNC(=N)N)C(=O)N[C@H](C(=O)N[C@@H](CCCCN)C(=O)N[C@@H](CC(=O)O)C(=O)N[C@@H](Cc1ccccc1)C(=O)N[C@@H](CC(C)C)C(=O)N[C@@H](CCCNC(=N)N)C(=O)N[C@@H](CC(N)=O)C(=O)N[C@@H](CC(C)C)C(=O)N[C@H](C(=O)N1CCC[C@H]1C(=O)N[C@@H](CCCNC(=N)N)C(=O)N[C@H](C(=O)N[C@@H](CCC(=O)O)C(=O)N[C@@H](CO)C(=O)O)[C@@H](C)O)C(C)C)[C@@H](C)CC)C(C)C)[C@@H](C)CC [LL-37, reference compound]",inhibition of S. aureus biofilm formation,[1],55.41%
"CN[C@H](CC(C)C)C(=O)N[C@H]1C(=O)N[C@@H](CC(N)=O)C(=O)N[C@H]2C(=O)N[C@H]3C(=O)N[C@H](C(=O)N[C@H](C(=O)O)c4cc(O)cc(O)c4-c4cc3ccc4O)[C@H](O)c3ccc(c(Cl)c3)Oc3cc2cc(c3O[C@@H]2O[C@H](CO)[C@@H](O)[C@H](O)[C@H]2O[C@H]2C[C@](C)(N)[C@H](O)[C@H](C)O2)Oc2ccc(cc2Cl)[C@H]1O [Van, vancomycin, reference compound]",MIC,[2],16 µg/mL
same,MIC,[3],0.5 µg/mL
same,MIC,[4],2 µg/mL
same,MIC,[5],128 µg/mL
same,MIC,[6],128 µg/mL
same,MIC,[7],> 128 µg/mL
same,MIC,[8],1 µg/mL
same,MIC,[9],1 µg/mL
same,MIC,[10],2 µg/mL
same,MIC,[11]; Staphylococcus aureus,2 µg/mL
same,MIC,[12],128 µg/mL
same,MIC,[13],128 µg/mL
"O=C(O)c1cn(C2CC2)c2cc(N3CCNCC3)c(F)cc2c1=O [ciprofloxacin, reference compound]",MIC,[11]; [17],0.25 µg/mL
same,MBC,"S. aureus ATCC4330; Staphylococcus aureus, ATCC 4330 / ATCC 43300, against S. aureus ATCC43300, read-out: MBC",2 µg/mL
same,effect on ROS fluorescence intensity,S. aureus ATCC43300 [14],little change in fluorescence intensity
same,effect on DNA concentration,S. aureus ATCC43300 [15],changed little
"CC[C@H](C)[C@H](NC(=O)CN)C(=O)NCC(=O)N[C@@H](C)C(=O)N[C@H](C(=O)N[C@@H](CC(C)C)C(=O)N[C@@H](CCCCN)C(=O)N[C@H](C(=O)N[C@@H](CC(C)C)C(=O)N[C@H](C(=O)N[C@H](C(=O)NCC(=O)N[C@@H](CC(C)C)C(=O)N1CCC[C@H]1C(=O)N[C@@H](C)C(=O)N[C@@H](CC(C)C)C(=O)N[C@H](C(=O)N[C@@H](CO)C(=O)N[C@@H](Cc1c[nH]c2ccccc12)C(=O)N[C@H](C(=O)N[C@@H](CCCCN)C(=O)N[C@@H](CCCNC(=N)N)C(=O)N[C@@H](CCCCN)C(=O)N[C@@H](CCCNC(=N)N)C(=O)N[C@@H](CCC(N)=O)C(=O)N[C@@H](CCC(N)=O)C(N)=O)[C@@H](C)CC)[C@@H](C)CC)[C@@H](C)O)[C@@H](C)O)C(C)C)C(C)C [melittin, reference compound]",MIC S. a 43300,[11]; [17],8 µg/mL
same,MBC,S. aureus ATCC4330; against S. aureus ATCC43300,32 µg/mL
same,effect on ROS fluorescence intensity,S. aureus ATCC43300 [14],dose-dependently increase the fluorescence intensity
"CCn1cc(C(=O)O)c(=O)c2cc(F)c(N3CCNCC3)cc21 [norfloxacin, reference compound]",fold increase in MIC,S. aureus ATCC43300 [16],512 fold
